Columns and labels:
[1] = system: HIV-1 strains, for e.g., 92HT599; test: Antiviral activity: p24 estimation in MT-2 cells infected with HIV-1; assay type: cell-based; conditions: Human immunodeficiency virus 1, MT2, MT-2 cells infected with HIV-1, p24, ~96 hours; for IC50: read-out: Antiviral activity IC50 (nM) Efficacy IC50
In short: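 MT-2 cells infected with HIV-1 (e.g. 92HT599), plated at 30,000 cells/well with compound (DMSO ≤1%) and incubated ~96 h. Supernatant p24 quantified by kit; percent inhibition relative to vehicle controls.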

[2] = Single dose oral pharmacokinetic study; assay type: in vivo; conditions: mouse, mice, 30 mg/kg, plasma; for AUC(0-t): read-out: Mice oral PK @30 mg/kg AUC 0-t; for Cmax: read-out: Mice oral PK @30 mg/kg Cmax
In short: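 Rats or mice received 30 mg/kg orally at 10 ml/kg dose volume. Retro-orbital blood was taken into K3 EDTA at defined intervals under light ether anesthesia and centrifuged to plasma. Plasma levels were measured by LC-MS-MS.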

Description for in vitro: On day 1 calculate the number of cells required for the assay and seed 3×10^4 cells in 200 μl per well. Weigh the compound and dissolve it in DMSO to get 10 mM stock which is further diluted to 3 mM and 1 mM. The drugs from these stocks were added to plate to get final concentration of 100 μM, 30 μM and 10 μM. […] Incubate for 4 days in 5% CO2 incubator at 37° C. On day 4, 100 μl of medium was removed from each well without disturbing the cells. Add 10 μl of MTT reagent and incubate for 4 hours at 5% CO2 incubator at 37° C. for formation of crystals. Add 200 μl of 0.1N acidic isopropanol to dissolve the crystals and read the plate at 590 nm.

| Compound | inhibition at 0.1 µM [1] | inhibition at 1 µM [1] | viability at 4 days, 10 μM (in vitro) | viability at 4 days, 30 μM (in vitro) | viability at 4 days, 100 μM (in vitro) | viability at 4 days, 0.1 nM (in vitro) | viability at 4 days, 1 nM (in vitro) | IC50 [1] | AUC(0-t) [2] | Cmax [2] |
| --- | --- | --- | --- | --- | --- | --- | --- | --- | --- | --- |
| C=C(C)[C@@H]1CC[C@]2(C(=O)N3CCC[C@H]3c3ncc(-c4ccc(C)c(F)c4)[nH]3)CC[C@]3(C)[C@H](CC[C@@H]4[C@@]5(C)CC[C@H](OC(=O)[C@H]6C[C@@H](C(=O)O)C6(C)C)C(C)(C)[C@@H]5CC[C@]43C)[C@@H]12 [Compound 2, (1R,3S)-3-((((1R,3aS,5aR,5 bR,7aR,9S,11aR,11bR,13aR,13bR)-3a-((S)-2-(5-(3-fluoro-4-methylphenyl)-1H-imidazol-2-yl)pyrrolidine-1-carbonyl)-5a,5b,8,8,11a-pentamethyl-1-(prop-1-en-2-yl)icosahydro-1H-cyclopenta[a]chrysen-9-yl)oxy)carbonyl)-2,2-dimethylcyclobutane-1-carboxylic acid] | 0% | 97% | 64% | 31% | 5% |  |  |  |  |  |
| C=C(C)[C@@H]1CC[C@]2(C(=O)N3CCC[C@H]3c3ncc(-c4ccc(OCC)cc4)[nH]3)CC[C@]3(C)[C@H](CC[C@@H]4[C@@]5(C)CC[C@H](OC(=O)[C@H]6C[C@@H](C(=O)O)C6(C)C)C(C)(C)[C@@H]5CC[C@]43C)[C@@H]12 [Compound 5, (1R,3S)-3-((((1R,3aS,5aR,5bR,7aR,9S,11aR,11bR,13aR,13bR)-3a-((S)-2-(5-(4-ethoxyphenyl)-1H-imidazol-2-yl)pyrrolidine-1-carbonyl)-5a,5b,8,8,11a-pentamethyl-1-(prop-1-en-2-yl)icosahydro-1H-cyclopenta[a]chrysen-9-yl)oxy)carbonyl)-2,2-dimethylcyclobutane-1-carboxylic acid] | 0% | 100% | 100% | 100% | 98% |  |  |  |  |  |
| C=C(C)[C@@H]1CC[C@]2(C(=O)N3CCC[C@H]3c3nc(-c4ccc(OC)c(F)c4)c[nH]3)CC[C@]3(C)[C@H](CC[C@@H]4[C@@]5(C)CC[C@H](OC(=O)[C@H]6C[C@@H](C(=O)O)C6(C)C)C(C)(C)[C@@H]5CC[C@]43C)[C@@H]12 [Compound 25, (1R,3S)-3-((((1R,3aS,5aR,5bR,7aR,9S,11aR,11bR,13aR,13bR)-3a-((S)-2-(4-(3-fluoro-4-methoxyphenyl)-1H-imidazol-2-yl)pyrrolidine-1-carbonyl)-5a,5b,8,8,11a-pentamethyl-1-(prop-1-en-2-yl)icosahydro-1H-cyclopenta[a]chrysen-9-yl)oxy)carbonyl)-2,2-dimethylcyclobutane-1-carboxylic acid] | 89% | 99% | 65% | 32% | 11% |  |  |  |  |  |
| C=C(C)[C@@H]1CC[C@]2(C(=O)N3CCC[C@H]3c3ncc(-c4ccc(C)c(F)c4)[nH]3)CC[C@]3(C)[C@H](CC[C@@H]4[C@@]5(C)CC[C@H](OC(=O)CC(C)(C)C(=O)O)C(C)(C)[C@@H]5CC[C@]43C)[C@@H]12 [Compound 40] | 29% | 99% | 80% | 48% | 25% |  |  |  |  |  |
| CC(C)(CC(=O)O[C@H]1CC[C@]2(C)[C@H]3CC[C@@H]4[C@H]5[C@H](C(C)(O)CO)CC[C@]5(C(=O)N5CCC[C@@H]5c5nc(-c6ccccc6)no5)CC[C@@]4(C)[C@]3(C)CC[C@H]2C1(C)C)C(=O)O (stereo partly drawn) [Compound 42, 4-(((1R,3aS,5aR,5bR,7aR,9S,11aR,11bR,13aR,13bS)-1-(1,2-dihydroxypropan-2-yl)-5a,5b,8,8,11a-pentamethyl-3a-((R)-2-(3-phenyl-1,2,4-oxadiazol-5-yl)pyrrolidine-1-carbonyl)icosahydro-1H-cyclopenta[a]chrysen-9-yl)oxy)-2,2-dimethyl-4-oxobutanoic acid] | 63% | 73% |  |  |  | 94% | 94% |  |  |  |
| CC(C)(CC(=O)O)CC(=O)O[C@H]1CC[C@]2(C)[C@H]3CC[C@@H]4[C@H]5[C@H](C6(C)CC6)CC[C@]5(C(=O)N5CCC[C@H]5c5ncc(-c6ccccn6)[nH]5)CC[C@@]4(C)[C@]3(C)CC[C@H]2C1(C)C [Compound 63, 3,3-dimethyl-5-oxo-5-(((1R,3aS,5aR,5bR,7aR,9S,11aR,11bR,13aR,13bR)-5a,5b,8,8,11a-pentamethyl-1-(1-methylcyclopropyl)-3a-((S)-2-(5-(pyridin-2-yl)-1H-imidazol-2-yl)pyrrolidine-1-carbonyl)icosahydro-1H-cyclopenta[a]chrysen-9-yl)oxy)pentanoic acid] |  |  |  |  |  |  |  | 3.6 nM | 120 µg·h/mL | 4470 ng/mL |
| CC(C)(CC(=O)O)CC(=O)O[C@H]1CC[C@]2(C)[C@H]3CC[C@@H]4[C@H]5[C@H](C6(C)CC6)CC[C@]5(C(=O)N5CCC[C@H]5c5ncc(-c6cccc(F)c6)[nH]5)CC[C@@]4(C)[C@]3(C)CC[C@H]2C1(C)C [Compound 64, 5-(((1R,3aS,5aR,5bR,7aR,9S,11aR,11bR,13aR,13bR)-3a-((S)-2-(5-(3-fluorophenyl)-1H-imidazol-2-yl)pyrrolidine-1-carbonyl)-5a,5b,8,8,11a-pentamethyl-1-(1-methylcyclopropyl)icosahydro-1H-cyclopenta[a]chrysen-9-yl)oxy)-3,3-dimethyl-5-oxopentanoic acid] |  |  |  |  |  |  |  | 14.6 nM | 105 µg·h/mL | 5250 ng/mL |
| CC(C)(CC(=O)O[C@H]1CC[C@]2(C)[C@H]3CC[C@@H]4[C@H]5[C@H](C6(C)CC6)CC[C@]5(C(=O)N5CCC[C@H]5c5ncc(-c6cccc(F)c6)[nH]5)CC[C@@]4(C)[C@]3(C)CC[C@H]2C1(C)C)C(=O)O [Compound 65, 4-(((1R,3aS,5aR,5bR,7aR,9S,11aR,11bR,13aR,13bR)-3a-((S)-2-(5-(3-fluorophenyl)-1H-imidazol-2-yl)pyrrolidine-1-carbonyl)-5a,5b,8,8,11a-pentamethyl-1-(1-methylcyclopropyl)icosahydro-1H-cyclopenta[a]chrysen-9-yl)oxy)-2,2-dimethyl-4-oxobutanoic acid] |  |  |  |  |  |  |  | 15.7 nM | 203 µg·h/mL | 13300 ng/mL |
| COCCOc1ccc(-c2cnc([C@@H]3CCCN3C(=O)[C@]34CC[C@@H](C5(C)CC5)[C@@H]3[C@H]3CC[C@@H]5[C@@]6(C)CC[C@H](OC(=O)CC(C)(C)C(=O)O)C(C)(C)[C@@H]6CC[C@@]5(C)[C@]3(C)CC4)[nH]2)cc1 [Compound 66] |  |  |  |  |  |  |  | 0.73 nM | 62.1 µg·h/mL | 6590 ng/mL |
| COCCO[C@@H]1C[C@@H](c2nc(-c3ccc(F)cc3)c[nH]2)N(C(=O)[C@]23CC[C@@H](C4(C)CC4)[C@@H]2[C@H]2CC[C@@H]4[C@@]5(C)CC[C@H](OC(=O)CC(C)(C)C(=O)O)C(C)(C)[C@@H]5CC[C@@]4(C)[C@]2(C)CC3)C1 [Compound 67, 4-(((1R,3aS,5aR,5bR,7aR,9S,11aR,11bR,13aR,13bR)-3a-((2S,4R)-2-(4-(4-fluorophenyl)-1H-imidazol-2-yl)-4-(2-methoxyethoxy)pyrrolidine-1-carbonyl)-5a,5b,8,8,11a-pentamethyl-1-(1-methylcyclopropyl)icosahydro-1H-cyclopenta[a]chrysen-9-yl)oxy)-2,2-dimethyl-4-oxobutanoic acid] |  |  |  |  |  |  |  | 0.44 nM | 247 µg·h/mL | 12300 ng/mL |
| CC(C)(CC(=O)O[C@H]1CC[C@]2(C)[C@H]3CC[C@@H]4[C@H]5[C@H](C6(C)CC6)CC[C@]5(C(=O)N5CCC(c6ncc(-c7ccccc7)[nH]6)CC5)CC[C@@]4(C)[C@]3(C)CC[C@H]2C1(C)C)C(=O)O [Compound 68, 2,2-dimethyl-4-oxo-4-(((1R,3aS,5aR,5bR,7aR,9S,11aR,11bR,13aR,13bR)-5a,5b,8,8,11a-pentamethyl-1-(1-methylcyclopropyl)-3a-(4-(5-phenyl-1H-imidazol-2-yl)piperidine-1-carbonyl)icosahydro-1H-cyclopenta[a]chrysen-9-yl)oxy)butanoic acid] |  |  |  |  |  |  |  | 12.8 nM | 23.5 µg·h/mL | 2020 ng/mL |
| CC(C)(CC(=O)O)CC(=O)O[C@H]1CC[C@]2(C)[C@H]3CC[C@@H]4[C@H]5[C@H](C6(C)CC6)CC[C@]5(C(=O)N5CCC[C@H]5c5ncc(-c6ccc(F)cc6)[nH]5)CC[C@@]4(C)[C@]3(C)CC[C@H]2C1(C)C [Compound 70, 5-(((1R,3aS,5aR,5bR,7aR,9S,11aR,11bR,13aR,13bR)-3a-((S)-2-(5-(4-fluorophenyl)-1H-imidazol-2-yl)pyrrolidine-1-carbonyl)-5a,5b,8,8,11a-pentamethyl-1-(1-methylcyclopropyl)icosahydro-1H-cyclopenta[a]chrysen-9-yl)oxy)-3,3-dimethyl-5-oxopentanoic acid] | 84% | 99% |  |  |  |  |  |  | 172 µg·h/mL | 10000 ng/mL |
